Assay results: US9315475B2 (MERCK SHARP & DOHME CORP., priority 2011, dated 2016)

These compounds were tested against T1, wildtype HIV-1 protease (Human immunodeficiency virus type 1 group M subtype B, UniProt P04585) (assay: Assay for inhibition of microbial expressed HIV protease (Pepcleav)). Details: wild type HIV-1 protease expressed in E. coli, peptide substrate, pH 5.5; mean of at least two independent experiments; read-out: Pepcleav.
T1 construct: the wildtype HIV-1 protease (which was expressed in Escherichia coli); made in house; host or cells: Escherichia coli
Format: biochemical
How it was run: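 Cleavage of 400 μM peptide substrate Val-Ser-Gln-Asn-(βnaphthyl)Ala-Pro-Ile-Val by 20 pM wild-type enzyme (E. coli-expressed) ran 1 h at 30 °C after 30 min inhibitor preincubation, pH 5.5 acetate buffer. Inhibition derived from product peak area by C18 LC with multiple-reaction-monitoring MS after formic acid quench.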

Compared with `COC(=O)N[C@H](C(=O)Nc1ccccc1CC[C@@H]1CN[C@H](CNC(=O)Nc2ccccc2)CO1)C(c1ccccc1)c1ccccc1` [Example 40, N-α-(methoxycarbonyl)-β-phenyl-N-(2-{2-[(2R,5R)-5-{[(phenylcarbamoyl)amino]methyl}morpholin-2-yl]ethyl}phenyl)-L-phenylalaninamide], `COC(=O)N[C@H](C(=O)Nc1ccccc1CC[C@@H]1CN[C@H](CNC(=O)c2ccccc2)CO1)C(c1ccccc1)c1ccccc1` [Example 52, Nα-(methoxycarbonyl)-β-phenyl-N-(2-{2-[(2R,5R)-5-{[(phenylcarbonyl)amino]methyl}morpholin-2-yl]ethyl}phenyl)-L-phenylalaninamide] is 1.8-fold higher in IC50: 52 nM for the first, 96 nM for the second.

Going from `COC(=O)N[C@H](C(=O)Nc1ccccc1CC[C@@H]1CN[C@H](COC(=O)NCc2cccc3ccncc23)CO1)C(c1ccccc1)c1ccccc1` [Example 18, methyl N-[(1S)-1-benzhydryl-2-[[2-[2-[(2R,5S)-5-(8-isoquinolylmethylcarbamoyloxymethyl)morpholin-2-yl]ethyl]phenyl]amino]-2-oxo-ethyl]carbamate] to `COC(=O)N[C@H](C(=O)Nc1ccccc1CC[C@@H]1CN[C@H](COC(=O)NCc2ccccc2F)CO1)C(c1ccccc1)c1ccccc1` [Example 12, N-(2-{2-[(2R,5S)-5-({[(2-fluorobenzyl)carbamoyl]oxy}methyl)morpholin-2-yl]ethyl}phenyl)-Nα-(methoxycarbonyl)-β-phenyl-L-phenylalaninamide], the IC50 falls from 28 nM to 3.6 nM (7.8-fold).

First: COC(=O)N[C@H](C(=O)Nc1ccccc1CC[C@@H]1CN[C@H](CCc2ccccc2NC(=O)NCc2ccccc2)CO1)C(c1ccccc1)c1ccccc1 [Example 75, methyl N-[(1S)-1-benzhydryl-2-[[2-[2-[(2R,5R)-5-[2-[2-(benzylcarbamoylamino)phenyl]ethyl]morpholin-2-yl]ethyl]phenyl]amino]-2-oxo-ethyl]carbamate]
Second: COC(=O)N[C@H](C(=O)Nc1ccccc1CC[C@@H]1CN[C@H](CCc2ccccc2NC(=O)CCc2ccccc2)CO1)C(c1ccccc1)c1ccccc1 [Example 71, methyl N-[(1S)-1-benzhydryl-2-oxo-2-[[2-[2-[(2R,5R)-5-[2-[2-(3-phenylpropanoylamino)phenyl]ethyl]morpholin-2-yl]ethyl]phenyl]amino]ethyl]carbamate]
The IC50 of the first is 3.2-fold higher: 4.1 nM for the first, 1.3 nM for the second.

First: CN1CCC(NC(=O)OC[C@@H]2CO[C@H](CCc3c(F)cncc3NC(=O)[C@@H](N)C(c3ccc(F)cc3)c3ccc(F)cc3)CN2)C1 (stereo partly drawn) [Example 229, 4-fluoro-N-(5-fluoro-4-{2-[(2R,5S)-5-({[(1-methylpyrrolidin-3-yl)carbamoyl]oxy}methyl)morpholin-2-yl]ethyl}pyridin-3-yl)-β-(4-fluorophenyl)-L-phenylalaninamide]
Second: NC(=O)OC[C@@H]1CO[C@H](CCc2c(F)cncc2NC(=O)[C@@H](N)C(c2ccc(F)cc2)c2ccc(F)cc2)CN1 [Example 119, N-[4-(2-{(2R,5S)-5-[(Carbamoyloxy)methyl]morpholin-2-yl}ethyl)-5-fluoropyridin-3-yl]-4-fluoro-β-(4-fluorophenyl)-L-phenylalaninamide]
The IC50 of the first is 28-fold higher: 190 nM for the first, 6.9 nM for the second. The second is the more potent here.

Going from `COC(=O)N[C@H](C(=O)Nc1ccccc1CC[C@@H]1CN[C@H](COC(=O)NCC(F)F)CO1)C(c1ccccc1)c1ccccc1` [Example 24, methyl N-[(1S)-1-benzhydryl-2-[[2-[2-[(2R,5S)-5-(2,2-difluoroethylcarbamoyloxymethyl)morpholin-2-yl]ethyl]phenyl]amino]-2-oxo-ethyl]carbamate] to `CCNC(=O)[C@@H]1CO[C@H](CCc2ccccc2NC(=O)[C@@H](NC(=O)OC)C(c2ccccc2)c2ccccc2)CN1` [Example 3, N-(2-{2-[(2R,5S)-5-(ethylcarbamoyl)morpholin-2-yl]ethyl}phenyl)-Nα-(methoxycarbonyl)-β-phenyl-L-phenylalaninamide], the IC50 falls from 85 nM to 15 nM (5.7-fold). The second is the more potent here.

First: COC(=O)N[C@H](C(=O)Nc1ccccc1CC[C@@H]1CN[C@H](CNS(=O)(=O)c2ccc3cnnn3c2)CO1)C(c1ccccc1)c1ccccc1 [Example 45, methyl N-[(1S)-1-benzhydryl-2-oxo-2-[[2-[2-[(2R,5R)-5-[(triazolo[1,5-a]pyridin-6-ylsulfonylamino)methyl]morpholin-2-yl]ethyl]phenyl]amino]ethyl]carbamate]
Second: COC(=O)N[C@H](C(=O)Nc1ccccc1CC[C@@H]1CN[C@H](COc2ccccc2)CO1)C(c1ccccc1)c1ccccc1 [Example 63, Nα-(methoxycarbonyl)-N-(2-{2-[(2R,5S)-5-(phenoxymethyl)morpholin-2-yl]ethyl}phenyl)-β-phenyl-L-phenylalaninamide]
The IC50 of the first is 2.3-fold lower: 21 nM for the first, 49 nM for the second. The first is the more potent here.

First: COC(=O)N[C@H](C(=O)Nc1ccccc1CC(F)[C@@H]1CN[C@H](COC(=O)NCc2ccc(F)cc2)CO1)C(c1ccccc1)c1ccccc1 (stereo partly drawn) [Example 78, N-(2-{2-fluoro-2-[(2S,5S)-5-({[(4-fluorobenzyl)carbamoyl]oxy}methyl)morpholin-2-yl]ethyl}phenyl)-Nα-(methoxycarbonyl)-β-phenyl-L-phenylalaninamide]
Second: COC(=O)N[C@H](C(=O)Nc1cncnc1CC[C@@H]1CN[C@H](COC(=O)NCc2ccc(F)cc2)CO1)C(c1ccccc1)c1ccccc1 [Example 36, N-(4-{2-[(2R,5S)-5-({[(4-fluorobenzyl)carbamoyl]oxy}methyl)morpholin-2-yl]ethyl}pyrimidin-5-yl)-Nα-(methoxycarbonyl)-β-phenyl-L-phenylalaninamide]
The IC50 of the first is 2.5-fold higher: 59 nM for the first, 24 nM for the second. The second is the more potent here.

First: N[C@H](C(=O)Nc1cncc(F)c1CC[C@@H]1CN[C@H](COC(=O)NCCN2CCCC2)CO1)C(c1ccc(F)cc1)c1ccc(F)cc1 [Example 233, 4-fluoro-β-(4-fluorophenyl)-N-(5-fluoro-4-{2-[(2R,5S)-5-({[(2-pyrrolidin-1-ylethyl)carbamoyl]oxy}methyl)morpholin-2-yl]ethyl}pyridin-3-yl)-L-phenylalaninamide]
Second: N[C@H](C(=O)Nc1cncc(F)c1CC[C@@H]1CN[C@H](COC(=O)NCC2CCS(=O)(=O)C2)CO1)C(c1ccc(F)cc1)c1ccc(F)cc1 (stereo partly drawn) [Example 209, N-[4-(2-{(2R,5S)-5-[({[(1,1-dioxidotetrahydrothiophen-3-yl)methyl]carbamoyl}oxy)methyl]morpholin-2-yl}ethyl)-5-fluoropyridin-3-yl]-4-fluoro-β-(4-fluorophenyl)-L-phenylalaninamide]
The IC50 of the first is 6.9-fold higher: 110 nM for the first, 16 nM for the second. The second is the more potent here.

Going from `N[C@@H](Cc1ccccc1Cl)C(=O)Nc1cccc(F)c1CC[C@@H]1CN[C@H](COC(=O)NCc2ccc(F)cc2)CO1` [Example 204, 2-chloro-N-(3-fluoro-2-{2-[(2R,5S)-5-({[(4-fluorobenzyl)carbamoyl]oxy}methyl)morpholin-2-yl]ethyl}phenyl)-L-phenylalaninamide] to `N[C@H](C(=O)Nc1cccc(F)c1CC[C@@H]1CN[C@H](COC(=O)NCC(F)(F)F)CO1)[C@H](c1ccc(F)cc1)c1ccc(OC(F)(F)F)cc1` [Example 231, (βS)-β-(4-fluorophenyl)-N-(3-fluoro-2-{2-[(2R,5S)-5-({[(2,2,2-trifluoroethyl)carbamoyl]oxy}methyl)morpholin-2-yl]ethyl}phenyl)-O-(trifluoromethyl)-L-tyrosinamide], the IC50 rises from 26 nM to 150 nM (5.8-fold). The first is the more potent here.

Going from `COC(=O)Nc1ccccc1CC[C@@H]1CO[C@H](CCc2ccccc2NC(=O)[C@@H](NC(=O)OC)C(c2ccccc2)c2ccccc2)CN1` [Example 76, methyl N-[(1S)-1-benzhydryl-2-[[2-[2-[(2R,5R)-5-[2-[2-(methoxy-carbonylamino)phenyl]ethyl]morpholin-2-yl]ethyl]phenyl]amino]-2-oxo-ethyl]carbamate] to `COCC(=O)Nc1ccccc1CC[C@@H]1CO[C@H](CCc2ccccc2NC(=O)[C@@H](NC(=O)OC)C(c2ccccc2)c2ccccc2)CN1` [Example 70, methyl N-[(1S)-1-benzhydryl-2-[[2-[2-[(2R,5R)-5-[2-[2-[(2-methoxyacetyl)amino]phenyl]ethyl]morpholin-2-yl]ethyl]phenyl]amino]-2-oxo-ethyl]carbamate], the IC50 falls from 52 nM to 24 nM (2.2-fold). The second is the more potent here.

First: COC(=O)N[C@H](C(=O)Nc1ccccc1CC[C@@H]1CN[C@H](C(=O)NC2CCOC2)CO1)C(c1ccccc1)c1ccccc1 (stereo partly drawn) [Example 4, Nα-(methoxycarbonyl)-β-phenyl-N-(2-{2-[(2R,5S)-5-(tetrahydrofuran-3-ylcarbamoyl)morpholin-2-yl]ethyl}phenyl)-L-phenylalaninamide]
Second: COC(=O)N[C@H](C(=O)Nc1ccccc1CC[C@@H]1CN[C@H](C(=O)NC(C)(C)C)CO1)C(c1ccccc1)c1ccccc1 [Example 8, N-(2-{2-[(2R,5S)-5-(tert-butylcarbamoyl)morpholin-2-yl]ethyl}phenyl)-Nα-(methoxycarbonyl)-β-phenyl-L-phenylalaninamide]
The IC50 of the first is 1.6-fold lower: 25 nM for the first, 41 nM for the second. The first is the more potent here.

Going from `COC(=O)N[C@H](C(=O)Nc1ccccc1CC[C@@H]1CN[C@H](CCc2ccccc2NS(=O)(=O)Cc2ccccc2)CO1)C(c1ccccc1)c1ccccc1` [Example 73, N-(2-{2-[(2R,5R)-5-(2-{2-[(benzylsulfonyl)amino]phenyl}ethyl)morpholin-2-yl]ethyl}phenyl)-Nα-(methoxycarbonyl)-β-phenyl-L-phenylalaninamide] to `COC(=O)N[C@H](C(=O)Nc1ccccc1CC[C@@H]1CN[C@H](CCc2ccccc2NC(=O)OCc2ccccc2)CO1)C(c1ccccc1)c1ccccc1` [Example 74, methyl N-[(1S)-1-benzhydryl-2-[[2-[2-[(2R,5R)-5-[2-(2-benzyloxycarbonylamino-phenyl)ethyl]morpholin-2-yl]ethyl]phenyl]amino]-2-oxo-ethyl]carbamate], the IC50 falls from 21 nM to 10 nM (2.1-fold). The second is the more potent here.

Work on `N[C@H](C(=O)Nc1cncc(F)c1OC[C@@H]1CN[C@H](COC(=O)NCC(F)(F)F)CO1)C(c1ccc(F)cc1)c1ccc(F)cc1` [Example 203, 4-fluoro-β-(4-fluorophenyl)-N-(5-fluoro-4-{[(2S,5S)-5-({[(2,2,2-trifluoroethyl)carbamoyl]oxy}methyl)morpholin-2-yl]methoxy}pyridin-3-yl)-L-phenylalaninamide] yielded an IC50 of 28 nM.
